Test results as given in patent publication US12416034B2, “Recombinant production of steviol glycosides” (EVOLVA SA, priority 2011, dated 2025).

Experiments:
[1] = In vitro assay of lysates of EUGT11-expressing cells after permeabilization treatment; type: biochemical, S. cerevisiae; settings: lysates of EUGT11 transformants, untreated or after LiAC/PEG, Triton X100 or LS treatment
Experimental: Experiments were done to establish conditions for permeabilization in E. coli and in yeast. Growing cells (S. cerevisiae or E. coli) were treated with different concentrations/combinations of permeabilization agents: toluene, chloroform and ethanol for permeabilization of S. cerevisiae, and guanidine, lactic acid, DMSO and/or Triton X-100 for permeabilization of E. coli. Tolerance of both model organisms to high concentrations of RebA and other potential substrates also was evaluated. The permeabilization was measured by the amount of RebD produced from a EUGT11-expressing organism after incubation in a RebA containing medium (feeding experiment). Enzyme activity was monitored before and after exposure to the permeabilizing agents by lysing the cells and analyzing the activity of the released UGTs in an in vitro assay.
Treatment with Triton X-100 0.3% or 0.5%, however, increased the amount of RebD above background levels (see FIG. 18) while sustaining the activity of EUGT11. For Triton X-100 assays, overnight cultures were washed three times in PBS buffer. Cells corresponding to 6 OD600 units were resuspended in PBS containing 0.3% or 0.5% Triton X-100 respectively. […]
Lysates from transformants expressing EUGT11 were able to convert some RebA into RebD (8 to 50 μM were measured in the reactions) when cells were untreated or after treatment with LiAC/PEG or Triton X100.

[2] = UDP-glucose regenerating activity of sucrose synthase; type: biochemical; settings: 1 mM UDP, ~200 mM sucrose, 37° C., 24 h
Experimental: Experiments were performed to evaluate the UDP-glucose regenerating activity of the purified GST-AtSUS1 and GST-SrSUS1. In vitro assays were conducted in 100 mM Tris-HCl pH=7.5 and 1 mM UDP (final concentration). Either ˜2.4 μg of purified GST-AtSUS1, ˜0.15 μg of GST-SrSUS1, or ˜1.5 μg commercial BSA (New England Biolabs, Ipswich, MA) were also added. Reactions were done in presence or absence of ˜200 mM sucrose and incubated at 37° C. for 24 h. Product UDP-glucose was measured by HPLC as described in the analytical section. AtSUS1 produced ˜0.8 mM UDP-glucose when sucrose was present. […] The lack of activity observed for SrSUS1 could be explained by the poor quality and concentration of the purified enzyme. UDP-glucose production by AtSUS1 was sucrose dependent and, therefore, it was concluded that AtSUS1 can be used in a coupled reaction to regenerate the UDP-glucose used by EUGT1 or other UGTs for small molecule glycosylation (FIG. 11, above).

[3] = Coupled AtSUS/EUGT11 reaction, RebD formation; type: biochemical; settings: ~200 mM sucrose, 1 mM UDP, 100 μM RebA, GST-AtSUS1 and GST-EUGT11
Experimental: SUS catalyzes the formation of UDP-glucose and fructose from sucrose and from UDP as depicted in FIG. 11. This UDP-glucose then can be used by EUGT11 for glycosylation of RebA to produce RebD. In vitro assays as described above were performed, adding ˜200 mM sucrose, 1 mM UDP, 100 μM RebA, ˜1.6 μg purified GST-AtSUS1 and ˜0.8 μg GST-EUGT11. Formation of product, RebD, was evaluated by LC-MS. When AtSUS, EUGT11, sucrose and UDP were mixed with RebA, 81±5 μM of RebD was formed. The reaction was dependent on the presence of AtSUS, EUGT11 and sucrose. The conversion rate was similar to what has been observed previously using UDP-glucose provided extraneously.

ERG9 = experiment: Amorphadiene production (indirect FPP accumulation), GC-MS; type: cell-based, S. cerevisiae; settings: 72 h, construct in front of ERG9
Description: DNA fragments encompassing an ERG9 promoter upstream sequence (for homologous recombination), an expression cassette for the gene (NatR) that confers resistance to Nourseothricin, a CYC1 promoter (SEQ ID NO: 185, FIG. 21), a 5′ UTR sequence with a stemloop structure, and an ERG9 ORF sequence (for homologous recombination) were generated by PCR. DNA fragments that contained either the CYC1 promoter or the KEX2 promoter (SEQ ID NO: 186) but no stemloops were also generated as controls. The flanking ERG9 sequences for recombination as well as the stemloop structure were introduced via the PCR oligos. The DNA fragments were transformed into an S. cerevisiae host strain that subsequently was selected on nourseothricin containing growth plates. […]
The Amorpha-4,11-diene Synthase (ADS) gene catalyzes the chemical reaction that turns one FPP molecule into Amorpha-4,11-diene in the plant Artemisia annua. […] Amorpha-4,11-diene production was measured and compared to the standard compound caryophyllene, as described by (Ro et al. 2006. Nature 440(7086):940-943; Paradise et al. Biotechnol Bioeng. 2008 Jun. 1; 100(2):371-8; Newman et al. Biotechnol Bioeng 95(4):684-691).
Engineered yeast strains were grown in SC 2% glucose with uracil dropped out. […] 10 μl of the dodecane layer was sampled and diluted 100 fold in ethyl acetate for quantification by GC-MS […]

[4] = system: Saccharomyces cerevisiae EFSC1923; experiment: Steviol 19-O-monoside production in EFSC1923 with plasmid-expressed enzymes; type: cell-based; settings: shake flask, co-expressed with KAH-3
Experimental: The 150 nucleotides at the 5′ end of the Zea mays CDP synthase coding sequence in Table 15 (SEQ ID NO:157, see FIG. 14) was deleted, the remainder of the coding sequence was provided with a new translation start ATG, and the truncated sequence was operably linked to the GPD1 promoter in the multicopy plasmid p423GPD in Saccharomyces cerevisiae EFSC1923. Plasmid p423GPD is described in Mumberg, D et al, Gene, 156: 119-122(1995). EFSC1923 and EFSC1923 plus p423GPD-Z.m.tCDPS were grown in for 96 hours in selective yeast medium containing 4% glucose. The amount of steviol 19-O-monoside produced by EFSC1923+p423GPD-Z.m.tCDPS (the truncated Zea mays CDPS) under these conditions was approximately 2.5 fold more than that produced by EFSC1923 without the plasmid.
The Arabidopsis thaliana KAH coding sequence from Table 15 was inserted in a multicopy plasmid designated p426GPD, under the control of the GPD1 promoter. Plasmid p426GPD is described in Mumberg, D et al, Gene. 156: 119-122(1995).
EFSC1923 was transformed with both p423GPD-Z.m.tCDPS and p426 p426GPD-A.t.KAH.
A bifunctional CDPS-KS from Gibberella fujikuroi (NCBI Accession no: Q9UVY5.1, FIG. 15) was cloned and compared to the truncated CDPS-5. […]

Q: For `CCCCCCCCCCCCN(C)CC(=O)O` [LS, N-lauryl sarcosine], which “RebD measured in reactions of lysates” value [1] is on record?
A: no RebD was measured

Q: For “AtSUS1: A. thaliana SUS1 sucrose synthase”, which UDP-glucose produced [2] is on record?
A: ~0.8 mM

Q: And the RebD formed [3]?
A: 81 ± 5 µM

Q: With “SEQ ID NO: 181: heterologous insert TGAATTCGTTAACGAATTC behind the CYC1 promoter in front of ERG9 (expressed or natural sequence)” as the molecule, how does the “increased production of amorphadiene” value (ERG9) read?
A: 2.5 ×

B1: bifunctional CDPS-KS: bifunctional CDPS-KS from Gibberella fujikuroi, NCBI Accession no Q9UVY5.1 (protein, listed as Gibberella fujikuroi)
chain: MPGKIENGTPKDLKTGNDFVSAAKSLLDRAFKSHHSYYGLCSTSCQVYDTAWVAMIPKTRDNVKQWLFPECFHYLLKTQAADGSWGSLPTTQTAGILDTASAVLALLCHAQEPLQILDVSPDEMGLRIEHGVTSLKRQLAVWNDVEDTNHIGVEFIIPALLSMLEKELDVPSFEFPCRSILERMHGEKLGHFDLEQVYGKPSSLLHSLEAFLGKLDFDRLSHHLYHGSMMASPSSTAAYLIGATKWDDEAEDYLRHVMRNGAGHGNGGISGTFPTTHFECSWIIATLLKVGFTLKQIDGDGLRGLSTILLEALRDENGVIGFAPRTADVDDTAKALLALSLVNQPVSPDIMIKVFEGKDHFTTFGSERDPSLTSNLHVLLSLLKQSNLSQYHPQILKTTLFTCRWWWGSDHCVKDKWNLSHLYPTMLLVEAFTEVLHLIDGGELSSLFDESFKCKIGLSIFQAVLRIILTQDNDGSWRGYREQTCYAILALVQARHVCFFTHMVDRLQSCVDRGFSWLKSCSFHSQDLTWTSKTAYEVGFVAEAYKLAALQSASLEVPAATIGHSVTSAVPSSDLEKYMRLVRKTALFSPLDEWGLMASIIESSFFVPLLQAQRVEIYPRDNIKVDEDKYLSIIPFTWVGCNNRSRTFASNRWLYDMMYLSLLGYQTDEYMEAVAGPVFGDVSLLHQTIDKVIDNTMGNLARANGTVHSGNGHQHESPNIGQVEDTLTRFTNSVLNHKDVLNSSSSDQDTLRREFRTFMHAHITQIEDNSRFSKQASSDAFSSPEQSYFQWVNSTGGSHVACAYSFAFSNCLMSANLLQGKDAFPSGTQKYLISSVMRHATNMCRMYNDFGSIARDNAERNVNSIHFPEFTLCNGTSQNLDERKERLLKIATYEQGYLDRALEALERQSRDDAGDRAGSKDMRKLKIVKLFCDVTDLYDQLYVIKDLSSSMK
Q: For B1, which “activity in producing steviol 19-O-monoside relative to EFSC1923 with the KAH-3 alone” value [4] is on record?
A: about 5.8 times
